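Exposure lasted 48 hours, with cells grown in 96-well plates and compounds tested at five concentrations. At the GI50, growth is halved.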 Calls of active or inactive are those of the source. No stated cut-off is given here; in the data, active = GI50 up to about 1.1 µM and inactive = higher.
Experiments:
Assay in all cases: growth of human tumour cells (NCI), 48 h
M14 = test system: M14
NCI-H23 = test system: NCI-H23
NCI/ADR-RES = test system: NCI/ADR-RES
LOX IMVI = test system: LOX IMVI
OVCAR-4 = test system: OVCAR-4
SK-MEL-2 = test system: SK-MEL-2
KM12 = test system: KM12
HCC 2998 = test system: HCC 2998
A498 = test system: A498
K562 = test system: K562
SNB-19 = test system: SNB-19
U-251 = test system: U-251
Malme-3M = test system: Malme-3M
UACC-257 = test system: UACC-257
DU-145 = test system: DU-145
CAKI-1 = test system: CAKI-1
BT-549 = test system: BT-549
SK-MEL-5 = test system: SK-MEL-5
HCT-116 = test system: HCT-116
Hs-578T = test system: Hs-578T

Row | SMILES | GI50 (M14) | GI50 (NCI-H23) | GI50 (NCI/ADR-RES) | GI50 (LOX IMVI) | GI50 (OVCAR-4) | GI50 (SK-MEL-2) | GI50 (KM12) | GI50 (HCC 2998) | GI50 (A498) | GI50 (K562) | GI50 (SNB-19) | GI50 (U-251) | GI50 (Malme-3M) | GI50 (UACC-257) | GI50 (DU-145) | GI50 (CAKI-1) | GI50 (BT-549) | GI50 (SK-MEL-5) | GI50 (HCT-116) | GI50 (Hs-578T)
1 | COc1ccc(CCNCCCC2c3ccccc3-c3ccccc32)cc1OC | 4.8 µM (inactive) | 15 µM (inactive) | 17.2 µM (inactive) | 14.2 µM (inactive) | 15.8 µM (inactive) | 6.68 µM (inactive) | 15.1 µM (inactive) | 2.06 µM (inactive) | 8.02 µM (inactive) | 4.09 µM (inactive) | 16.7 µM (inactive) | 12.9 µM (inactive) | 13.6 µM (inactive) | 14.3 µM (inactive) | 15.5 µM (inactive) | 18.4 µM (inactive) | 20.4 µM (inactive) | 10.6 µM (inactive) | 12.6 µM (inactive) | 20.1 µM (inactive)
2 | N#Cc1c2ccc([N+](=O)[O-])cc2c(=O)n2c1[nH]c1ccc(C(F)(F)F)cc12 | 24.5 µM (inactive) | 20.1 µM (inactive) | 23.2 µM (inactive) | 6.56 µM (inactive) | 24.8 µM (inactive) | > 64.7 µM (inactive) | 24.8 µM (inactive) | 15.2 µM (inactive) | 7.91 µM (inactive) | 12.5 µM (inactive) | 10.8 µM (inactive) | 26.4 µM (inactive) | 41 µM (inactive) | > 88.7 µM (inactive) | 44.4 µM (inactive) | 60.8 µM (inactive) | 25.2 µM (inactive) | 29.4 µM (inactive) | 10.1 µM (inactive) | 24.4 µM (inactive)
3 | COCCOC1=C(Cl)C(=O)c2c(O)ccc(O)c2C1=O | 1.71 µM (inactive) | 2.25 µM (inactive) | 2.84 µM (inactive) | 1.16 µM (inactive) | 1.94 µM (inactive) | 5.98 µM (inactive) | 9.48 µM (inactive) | 8.2 µM (inactive) | 10.4 µM (inactive) | 0.635 µM (active) | 14.6 µM (inactive) | 4.75 µM (inactive) | 0.955 µM (active) | 1.96 µM (inactive) | 5.26 µM (inactive) | 0.438 µM (active) | 2.52 µM (inactive) | 1.95 µM (inactive) | 0.979 µM (active) | 3.24 µM (inactive)
4 | N#CC(c1ccccc1)N(CCCCCCN(C(=O)c1ccccc1)C(C#N)c1ccccc1)C(=O)c1ccccc1 (configuration not stated) | 41.2 µM (inactive) | 26.2 µM (inactive) | 16 µM (inactive) | 29.3 µM (inactive) | 35 µM (inactive) | 23.6 µM (inactive) | 38.5 µM (inactive) | 17.1 µM (inactive) | 15 µM (inactive) | 35.2 µM (inactive) | 44.2 µM (inactive) | 52.6 µM (inactive) | 35.8 µM (inactive) | 22.8 µM (inactive) | 41.3 µM (inactive) | 32.1 µM (inactive) | 31.1 µM (inactive) | 17.9 µM (inactive) | 25.1 µM (inactive) | 26.1 µM (inactive)
5 | CN(C)CCNC(=O)c1c(O)ccc2c1c1c(n2CCc2ccccc2)C(=O)c2ccccc2C1=O | 1.93 µM (inactive) | 14.4 µM (inactive) | 13.5 µM (inactive) | 2.43 µM (inactive) | 11.6 µM (inactive) | 5.87 µM (inactive) | 4.15 µM (inactive) | 1.22 µM (inactive) | 14.8 µM (inactive) | 2.39 µM (inactive) | 9.68 µM (inactive) | 4.4 µM (inactive) | 3.63 µM (inactive) | 5.37 µM (inactive) | 4.57 µM (inactive) | 7.08 µM (inactive) | 16.1 µM (inactive) | 2.96 µM (inactive) | 3.6 µM (inactive) | 9.73 µM (inactive)
6 | S=C(N/N=C/c1ccccn1)Nc1ccc(Cl)cc1 | 0.0347 µM (active) | 0.104 µM (active) | 0.0366 µM (active) | 0.06 µM (active) | 0.689 µM (active) | 2.14 µM (inactive) | 0.175 µM (active) | 0.59 µM (active) | 4.1 µM (inactive) | < 0.01 µM (active) | 0.483 µM (active) | 0.0528 µM (active) | 0.145 µM (active) | 0.04 µM (active) | 0.126 µM (active) | < 0.0125 µM (active) | 0.233 µM (active) | 0.11 µM (active) | 0.0449 µM (active) | 1.85 µM (inactive)
7 | CCOC(=O)C1=C(Cl)c2cccnc2C1=O | 54.2 µM (inactive) | 16.4 µM (inactive) | > 100 µM (inactive) | 23.7 µM (inactive) | > 100 µM (inactive) | > 100 µM (inactive) | > 100 µM (inactive) | 61.7 µM (inactive) | > 100 µM (inactive) | 54.7 µM (inactive) | 53 µM (inactive) | 35.6 µM (inactive) | 31.3 µM (inactive) | 39.7 µM (inactive) | 21.5 µM (inactive) | 54.6 µM (inactive) | 45.4 µM (inactive) | 53.6 µM (inactive) | 27.4 µM (inactive) | 27.7 µM (inactive)
8 | CC1CNC(c2ccc(-c3nc(-c4ccc(C5=NC(C)CN5)cc4)nc(N(C)C)n3)cc2)=N1 (configuration not stated) | 3.21 µM (inactive) | 2.39 µM (inactive) | 22 µM (inactive) | 1.41 µM (inactive) | 1.55 µM (inactive) | 2.01 µM (inactive) | 2.23 µM (inactive) | 1.83 µM (inactive) | 2.05 µM (inactive) | 1.41 µM (inactive) | 1.75 µM (inactive) | 0.991 µM (active) | 3.08 µM (inactive) | 3.08 µM (inactive) | 1.78 µM (inactive) | 17.6 µM (inactive) | 3.74 µM (inactive) | 3.8 µM (inactive) | 0.964 µM (active) | 3.21 µM (inactive)
9 | COc1ccccc1/C=C1\CCC(CN(C)C)C1=O (configuration not stated) | 3.64 µM (inactive) | 10.8 µM (inactive) | 7.24 µM (inactive) | 2.14 µM (inactive) | 6.92 µM (inactive) | 8.51 µM (inactive) | 3.75 µM (inactive) | 5.21 µM (inactive) | 19.3 µM (inactive) | 2.28 µM (inactive) | 17.1 µM (inactive) | 11.1 µM (inactive) | 6.19 µM (inactive) | 10.8 µM (inactive) | 11.8 µM (inactive) | 5.6 µM (inactive) | 13.3 µM (inactive) | 12.4 µM (inactive) | 3.48 µM (inactive) | 9.86 µM (inactive)
10 | CC(=O)OC1COC(Nc2nc(NCc3ccccc3)n(C)c(=O)c2N=O)C(OC(C)=O)C1OC(C)=O (configuration not stated) | > 10 µM (inactive) | > 10 µM (inactive) | > 10 µM (inactive) | > 10 µM (inactive) | > 10 µM (inactive) | > 10 µM (inactive) | > 10 µM (inactive) | > 10 µM (inactive) | > 10 µM (inactive) | > 10 µM (inactive) | > 10 µM (inactive) | > 10 µM (inactive) | > 10 µM (inactive) | > 10 µM (inactive) | > 10 µM (inactive) | > 10 µM (inactive) | > 10 µM (inactive) | > 10 µM (inactive) | > 10 µM (inactive) | > 10 µM (inactive)
11 | C=CCn1c(N)c(C#N)c(C#N)c1CCC | > 100 µM (inactive) | > 100 µM (inactive) | > 100 µM (inactive) | > 100 µM (inactive) | > 100 µM (inactive) | > 100 µM (inactive) | > 100 µM (inactive) | > 100 µM (inactive) | > 100 µM (inactive) | > 100 µM (inactive) | > 100 µM (inactive) | > 100 µM (inactive) | > 100 µM (inactive) | > 100 µM (inactive) | > 100 µM (inactive) | > 100 µM (inactive) | > 100 µM (inactive) | > 100 µM (inactive) | – | > 100 µM (inactive)
12 | c1ccc(N/N=C2\CC(c3ccccc3)Oc3ccccc32)cc1 (configuration not stated) | 42.6 µM (inactive) | 60.4 µM (inactive) | 43.1 µM (inactive) | 34.2 µM (inactive) | 46.2 µM (inactive) | 65.3 µM (inactive) | 32.4 µM (inactive) | 43.4 µM (inactive) | 42.2 µM (inactive) | 41.9 µM (inactive) | 35.9 µM (inactive) | 33.8 µM (inactive) | > 100 µM (inactive) | 69.3 µM (inactive) | 36 µM (inactive) | 50.2 µM (inactive) | 39.8 µM (inactive) | 40.8 µM (inactive) | 32.1 µM (inactive) | 36.5 µM (inactive)
13 | C[C@H]1C/C=C/[C@H]2[C@@H]3O[C@]3(C)[C@@H](C)[C@H]3[C@H](Cc4ccccc4)NC(=O)[C@]32OC(=O)O/C=C/[C@@](C)(O)C1=O [CYTOCHALASIN E] | 0.0436 µM (active) | 0.197 µM (active) | 5.69 µM (inactive) | 0.0128 µM (active) | 0.0262 µM (active) | 0.393 µM (active) | 17.5 µM (inactive) | 0.138 µM (active) | 0.0181 µM (active) | 1.72 µM (inactive) | 0.0604 µM (active) | 0.0188 µM (active) | 0.0251 µM (active) | 0.263 µM (active) | < 0.01 µM (active) | 0.0132 µM (active) | 0.0392 µM (active) | 0.0211 µM (active) | – | 0.0171 µM (active)
14 | Cc1c(C)c2c(c(N)c1C#N)C(=O)N(OS(=O)(=O)c1ccccc1)C2=O | 19.5 µM (inactive) | – | 22.6 µM (inactive) | 26.2 µM (inactive) | 21.2 µM (inactive) | 49 µM (inactive) | 64.9 µM (inactive) | 38.7 µM (inactive) | > 100 µM (inactive) | 16.7 µM (inactive) | > 100 µM (inactive) | 20.5 µM (inactive) | 16.1 µM (inactive) | 24.4 µM (inactive) | 11.6 µM (inactive) | 20.8 µM (inactive) | 19.9 µM (inactive) | 44.9 µM (inactive) | 4.42 µM (inactive) | 34.8 µM (inactive)
